From patent publication US20080182125A1, “Cationic latex as a carrier for bioactive ingredients and its use in wallboard manufacture” (priority 2006, published 2008)
Read-outs that look alike come from different tables or passages of the source.

How the values were obtained:
[1] = Stability of additive under polymerization conditions; type: physicochemical; settings: incorporated in relatively high amounts
Text: Ideally, the materials are substantially unreactive during the polymerization conditions, so they are not degraded during polymerization. In some embodiments, low levels of additive might be observed, whether due to degradation, or difficulty in extraction from the polymer latex. In any case, retention of the additive in the latex leads to retention of antifungal properties in the finished paper.
The polymerization temperature was investigated as a potential contributor to degradation, and it was kept as low as was feasible (typically <70° C.). The samples were stripped at the end of polymerization to the desired solids content.

fungal species [2] = test: 30-III fungal test on 1"X1" chip of dried latex, 7 days; type: cell-based; settings: 7 day incubation, FIG. 5
Text: FIG. 5 is a graph showing the results of a 30-III fungal test, based on making a 1″X1″ chip of the dried latex, inoculating the fungal species directly on to the sample, and then observing its growth after 7 days.
The 30-III fungal test was based on making a 1″X1″ chip of the dried latex and inoculating the fungal species directly on to the sample and then observing its growth after 7 days.

[3] = Solubility of additives used in polymerization; type: physicochemical
fungal species [4] = test: ASTM D-3273 second round test of coated paper, 28 days, spores in humidity chamber; type: cell-based; settings: increased coating thickness, FIG. 6
Protocol: FIG. 6 is a graph showing the results of a second round of testing of coated paper samples, tested according to ASTM D-3273 over a period of 28 days. In this study, the fungal species were not directly inoculated on the surface, but rather, were maintained in the humidity chamber as spores that would then land on the surface of the coated paper.
A second round of testing was performed using an increased coating thickness to ensure full coverage of the paper surface. The second round of testing of the coated paper samples were tested according to ASTM D-3273. In this study, the duration remained the same (28 days), but the fungal species were not directly inoculated on the surface. Rather, they were maintained in the humidity chamber as spores that would then land on the surface of the coated paper as in a real world example. The results of this study are outlined in FIG. 6.

[5] = additives used in polymerization, solubility in monomer or water

Q: Which Degradation during polymerization [1] does the source give for `Cc1ccc(S(=O)(=O)C(I)I)cc1` [Amical AF, Diiodomethyltoluyl sulfone] here?
A: degraded

Q: And the “Fungal inhibition, 30-III test” value (fungal species [2])?
A: some fungal inhibition

Q: What about the Solubility [3, 5] of the same compound?
A: Limited

Q: And the “Antifungal effectiveness, ASTM D-3273” value (fungal species [4])?
A: effective

Q: With `[Na+].[O-]c1ccccc1-c1ccccc1` [Microban P2, Sodium orthophenyl phenate] as the compound, how does the Solubility [3, 5] read?
A: Solid. Water

Q: For `CCCC1COC(Cn2cncn2)(c2ccc(Cl)cc2Cl)O1` (stereo not shown) [Microban PZ, Propiconazole], which Solubility [3] is on record?
A: Fairly soluble

Q: Which Solubility [3, 5] does the source give for `CC(C)(C)C(O)(CCc1ccc(Cl)cc1)Cn1cncn1` (stereo not shown) [Microban TZ, Tebuconazole] here?
A: Fairly soluble

Q: For `Oc1cc(Cl)ccc1Oc1ccc(Cl)cc1Cl` [Triclosan, Chlorodiphenyl ether], which Solubility [3, 5] is on record?
A: Solid. Fairly

Q: For Zinc pyrithione [Microban Z01], which “Fungal inhibition, 30-III test” value (fungal species [2]) is on record?
A: performed well

Q: What about the “Antifungal effectiveness, ASTM D-3273” value (fungal species [4]) of the same compound?
A: did not perform well
